Columns and labels:
Type in all cases: in vitro ADME
[1] = Hepatocytes stability assay (human hepatocytes); details: both sexes, human, cryopreserved hepatocytes, cryopreserved human hepatocytes (pool of 50 mixed gender); 1 μM test compound; 1×10^6 cell/mL; 37 degrees C; read-out: CLint (μL/min/million cells)
Protocol: (§1) In vitro metabolic stability was assessed using cryopreserved hepatocytes from male Sprague Dawley rats and a pool of 50 mixed gender humans (BioIVT, Baltimore, MD). The incubation mixtures were prepared by mixing 250 μL of pre-warmed KHB (Krebs-Henseleit buffer) containing 2×10^6 cell/mL of hepatocytes with 250 μL of pre-warmed KHB buffer containing 2 μM of test compounds in a 48-well plate, giving a final concentration of 1 μM test compound (0.1% DMSO) and 1×10^6 cell/mL of hepatocytes. The reaction mixture was incubated at 37 degrees C. A 50 μL aliquot of incubation mixture was taken at time points (0, 15, 30, 60, 120 and 240 minutes) and transferred into a 96-well plate containing 300 μL ice-cold acetonitrile (containing 30 ng/mL of labetalol and 10 ng/mL of Naltrexone-d3 as internal standards) and immediately placed in ice to terminate the reaction. Samples were centrifuged, and supernatants were transferred into 96-well plates for liquid chromatography with tandem mass spectrometry (LC-MS/MS) analysis to monitor the depletion of the test compound.
(§2) Data was calculated as percent remaining by assuming zero-minute time point peak area ratio (analyte/IS) as 100% and dividing remaining time point peak area ratios by zero-minute time point peak area ratio. Data were fitted to a first-order decay model to determine half-life. From a plot of log (ln) peak area against time, the slope of the line was determined. Subsequently, half-life (T1/2) and intrinsic clearance (CLint) were calculated using the equations below: Elimination rate constant (k)=(−slope) Half-life (T1/2) min=0.693/k Intrinsic Clearance (CLint) (mL/min/million cells)=(V×0.693)/T1/2 V=incubation volume mL/number of cells The in vitro T1/2 was converted to in vitro intrinsic clearance (CLint,hep) in units of mL/min/kg using the formula shown below:
(§3) [formula] The in vitro intrinsic clearance (CLint,hep) was scaled to in vivo hepatic clearance (CL,hep) using the following equation which was adapted from a well-stirred model.
(§4) [formula] where Q is the liver blood flow and fu is the fraction unbound (assumed to be unity in this case). All parameters used in the calculation are shown below (Table 4).
(§5) The extraction ratio (ER) was calculated by dividing the hepatic clearance of a compound to the liver blood flow. The data reported in Table 5 were obtained according to the human hepatocytes stability assay described above.

human hepatocytes = assay: Hepatocytes stability assay (human hepatocytes); details: human hepatocytes; scaled hepatic clearance divided by liver blood flow (well-stirred model, fu assumed unity)
Protocol: as §1, §2, §3, §4, §5

MDR1 = assay: MDCK-MDR1 permeability assay; details: dog, MDCK-MDR1, MDCK-MDR1 cells; for efflux ratio at 2 h, 3 μM: Papp B→A divided by Papp A→B, read-out: Efflux ratio (ER); for Papp A→B at 2 h, 3 μM: test compound 3 μM, 2 hours at 37 degrees C, apical to basolateral
Protocol: The bidirectional permeability (Apical to Basal and Basal to Apical directions) of test compounds in MDCK-MIDR1 cells were evaluated using MDCK-MIDR1 cells seeded in Solvo PreadyPort™ MDCK 96-well plate. Once the plate was received from ReadyCell (Barcelona, Spain), it was treated as per PreadyPort™ user's manual.
For the Apical to Basolateral (A→B) permeability, 80 μL of test compound (3 μM) co-dosed with LY (Lucifer Yellow) (100 μM) in HBSS (Hank's Balanced Salt Solution) assay buffer was added to the donor side (A) while 250 μL of HBSS buffer was added to the receiver side (B). For the Basolateral to Apical (B→A) permeability, 255 μL of test compound (3 μM) in HBSS assay buffer was added to the donor side (B) while 75 μL of HBSS buffer containing LY (100 μM) was added to the receiver side (A).
The plate was placed in an incubator set at 37 degrees C. After 10 minutes of pre-warming, 5 μL aliquot was taken from donor compartment and set aside as the dosing solution. The MDCK-MDR1 incubation plate was placed back into the incubator for 2 hours of incubation at 37 degrees C. After 2 hours of incubation, 25 μL and 5 μL aliquots were removed from the receiver and donor sides, respectively. To the 5 μL aliquots taken from the donor sides (before and after a 2-hour incubation) were diluted with 20 μL of the HBSS buffer. All samples were mixed with 150 μL with acetonitrile containing internal standard (IS) and 200 μL water, and analyzed by LC-MS/MS.
The apparent permeability (Papp) was calculated using the following formula: Papp=dQ/dt×1/A×C0 where: • dQ/dt: amount of translocated material over incubation time (nmol/s) • A: area of insert (0.14 cm^2 for PreadyPort™ MDR1-96) • C0: initial concentration of product applied in apical (A→B) or basal (B→A) compartment (nmol/mL)
The efflux ratio (ER) was measured by dividing the Papp (basolateral to apical direction) by Papp (apical to basolateral direction). It is a general measure of the involvement of active processes. An ER>2 is considered positive for active transport.
Percent recovery was measured using the following equation:
[formula] where: • VR: Volume of the receiver compartment (mL) • VD: Volume of the donor compartment (mL) • CN: Concentration of dosing solution (μM) collected after 10 minutes of incubation • CR^final: Receiver concentration at the end of the incubation (μM) • CD^final: Donor concentration at the end of the incubation (μM)
The data reported in Table 3 were obtained according to the MDCK-MDR1 permeability assay described above.

| Compound | hepatocyte CLint at 1 μM [1] | Extraction Ratio (ER) (human hepatocytes) | efflux ratio at 2 h, 3 μM (MDR1) | Papp A→B at 2 h, 3 μM (MDR1) |
| --- | --- | --- | --- | --- |
| Cc1ccc2c(c1)OCC(=O)N1CCC[C@H](NS(C)(=O)=O)C1CO[C@H]1CC[C@@H]2CC1 (stereo in doubt) [Compound 40] | 6.4 µL/min/1e6 cells | 0.49 | > 100 | < 0.18 ×10⁻⁶ cm/s |
| O=C1COc2ccccc2[C@H]2CC[C@H](CC2)OCC2[C@@H](NS(=O)(=O)C3CCC3)CCCN12 (stereo in doubt) [Compound 42] | 36 µL/min/1e6 cells | 0.84 | 7.4 | 0.92 ×10⁻⁶ cm/s |
| O=C1COc2ccccc2[C@H]2CC[C@H](CC2)OCC2[C@@H](NS(=O)(=O)CC3CCC3)CCCN12 (stereo in doubt) [Compound 43] | 55 µL/min/1e6 cells | 0.89 | 10 | 0.96 ×10⁻⁶ cm/s |
| CC(C)(C)S(=O)(=O)N[C@H]1CCCN2C(=O)COc3ccccc3[C@H]3CC[C@H](CC3)OCC12 (stereo in doubt) [Compound 44] | 46 µL/min/1e6 cells | 0.87 | 7.8 | 2 ×10⁻⁶ cm/s |
| CS(=O)(=O)N[C@H]1CCCN2C(=O)COc3ccc(C#N)cc3[C@H]3CC[C@H](CC3)OCC12 (stereo in doubt) [Compound 46] | 2.8 µL/min/1e6 cells | 0.29 | 81 | 0.18 ×10⁻⁶ cm/s |
| CS(=O)(=O)N[C@H]1CCCN2C(=O)COc3cc(C#N)ccc3[C@H]3CC[C@H](CC3)OCC12 (stereo in doubt) [Compound 47] | 4.3 µL/min/1e6 cells | 0.39 | > 100 | 0.19 ×10⁻⁶ cm/s |
| O=C1COc2ccccc2[C@H]2CC[C@H](CC2)OCC2[C@@H](NS(=O)(=O)CC3CC3)CCCN12 (stereo in doubt) [Compound 48] | 41 µL/min/1e6 cells | 0.86 | 60 | 0.56 ×10⁻⁶ cm/s |
| Cc1cccc2c1OCCN1CCC[C@H](NS(C)(=O)=O)C1CO[C@H]1CC[C@@H]2CC1 (stereo in doubt) [Compound 49] | 58 µL/min/1e6 cells | 0.90 | 0.73 | 8.6 ×10⁻⁶ cm/s |
| Cc1ccc2c(c1)OCCN1CCC[C@H](NS(C)(=O)=O)C1CO[C@H]1CC[C@@H]2CC1 (stereo in doubt) [Compound 50] | 61 µL/min/1e6 cells | 0.90 | 0.76 | 9.6 ×10⁻⁶ cm/s |
| O=S(=O)(N[C@H]1CCCN2CCOc3ccccc3[C@H]3CC[C@H](CC3)OCC12)C1CC1 (stereo in doubt) [Compound 51] | 42 µL/min/1e6 cells | 0.86 | 1.1 | 7.8 ×10⁻⁶ cm/s |
| CC(C)S(=O)(=O)N[C@H]1CCCN2CCOc3ccccc3[C@H]3CC[C@H](CC3)OCC12 (stereo in doubt) [Compound 52] | 59 µL/min/1e6 cells | 0.90 | 2.4 | 3.9 ×10⁻⁶ cm/s |
| CCS(=O)(=O)N[C@H]1CCCN2CCOc3ccccc3[C@H]3CC[C@H](CC3)OCC12 (stereo in doubt) [Compound 53] | 58 µL/min/1e6 cells | 0.90 | 1.8 | 5.6 ×10⁻⁶ cm/s |
| Cc1ccc2c(c1)[C@H]1CC[C@H](CC1)OCC1[C@@H](NS(C)(=O)=O)CCCN1CCO2 (stereo in doubt) [Compound 54] | 38 µL/min/1e6 cells | 0.85 | 2 | 5.2 ×10⁻⁶ cm/s |
| O=S(=O)(CC1CCC1)N[C@H]1CCCN2CCOc3ccccc3[C@H]3CC[C@H](CC3)OCC12 (stereo in doubt) [Compound 55] | 69 µL/min/1e6 cells | 0.91 | 31 | 0.23 ×10⁻⁶ cm/s |
| CC(C)(C)S(=O)(=O)N[C@H]1CCCN2CCOc3ccccc3[C@H]3CC[C@H](CC3)OCC12 (stereo in doubt) [Compound 56] | 69 µL/min/1e6 cells | 0.91 | 3.3 | 1.7 ×10⁻⁶ cm/s |
| O=S(=O)(N[C@H]1CCCN2CCOc3ccccc3[C@H]3CC[C@H](CC3)OCC12)C1CCC1 (stereo in doubt) [Compound 57] | 65 µL/min/1e6 cells | 0.91 | 6 | 1.7 ×10⁻⁶ cm/s |
| CC1(S(=O)(=O)N[C@H]2CCCN3CCOc4ccccc4[C@H]4CC[C@H](CC4)OCC23)CC1 (stereo in doubt) [Compound 58] | 55 µL/min/1e6 cells | 0.89 | 7.5 | 1.4 ×10⁻⁶ cm/s |
| O=S(=O)(CC1CC1)N[C@H]1CCCN2CCOc3ccccc3[C@H]3CC[C@H](CC3)OCC12 (stereo in doubt) [Compound 59] | 62 µL/min/1e6 cells | 0.90 | 5.4 | 1.67 ×10⁻⁶ cm/s |
| Cc1ccnc2c1[C@H]1CC[C@H](CC1)OCC1[C@@H](NS(=O)(=O)C3CC3)CCCN1C(=O)CO2 (stereo in doubt) [Compound 62] | 21 µL/min/1e6 cells | 0.76 | > 100 | 0.092 ×10⁻⁶ cm/s |
| O=S(=O)(N[C@H]1CCCN2CCOc3ncccc3[C@H]3CC[C@H](CC3)OCC12)C1CC1 (stereo in doubt) [Compound 63] | 44 µL/min/1e6 cells | 0.87 | 1.4 | 7.5 ×10⁻⁶ cm/s |

Reference: patent publication US12006330B2, “Substituted macrocyclic compounds and related methods of treatment” (Alkermes, Inc., priority 2020, dated 2024)
